Reference: patent US20240382600A1, “BIFUNCTIONAL DEGRADERS COMPRISING A TEAD BINDER” (Novartis AG, priority 2021, published 2024)

Legend:
[1] = biological target: Avi-humanTEAD4^217-434 / Cy5 labeled humanYAP^60-100 (Homo sapiens (Human), UniProt Q15561); assay: In-vitro biochemical TR-FRET assay (TEAD4/YAP); type: binding; details: 1 h at room temperature
Procedure: N-terminus Cy5 labeled humanYAP^60-100 (20 nM) was then added to this preparation. Compounds were dissolved at 10 mM in 100% DMSO and serial dilutions were made in 100% DMSO. The diluted compound solutions were incubated in white 384-well plates (Greiner Bio-One) for 1 h at room temperature with the above described mix. The final DMSO concentration present in the assay was 1%. […] The IC50 values were estimated by fitting the data by nonlinear fit regression (GraphPad Prism).

[2] = tested on: YAP-dependent transcription in NCI-H2052 Tet-On shYAP_2371 pLenti6 MCAT_Luc cells; assay: YAP reporter gene activity assay (MCAT-Luc), NCI-H2052; type: cell-based; details: Homo sapiens, 24 hrs
[3] = tested on: YAP-dependent transcription in SF268-MCAT_Luc_dox-i-shYAPLevy (Clone 13) cells; assay: YAP reporter gene activity assay (MCAT-Luc), SF268; type: cell-based; details: Homo sapiens, SF-268; SF268 MCAT_Luc, 24 hrs
[4] = tested on: MKN-45/Ubc-luc cells (unspecific inhibition of luciferase expression or activity); assay: Reporter gene assay specificity control (Ubc-Luc), MKN-45; type: cell-based; details: Homo sapiens; MKN-45/Ubc-luc specificity control, 24 hrs
Source text: (§1) NCI-H2052 mesothelioma cells (RRID: CVCL_1518) bearing Hippo-pathway inactivating mutations upstream of YAP (homozygous deletion of LATS2 and mutation of NF2) were obtained from ATCC (American Type Culture Collection), while SF268 glioma cells (RRID: CVCL_1689) overexpressing YAP due to genomic amplification were obtained from the NCI (National Cancer Institute). MKN-45 gastric adenocarcinoma cells (RRID: CVCL_0434) genomically deleted for YAP were obtained from the JCRB (Japanese Collection of Research Bioresources) Cell Bank.
As a specificity control, MKN-45 cells were stably transduced with a Ubc-Luc reporter construct, in which constitutive expression of firefly luciferase is driven by the promoter of the ubiquitin C housekeeping gene. The resulting cell line, MKN-45/Ubc-luc, was selected and maintained in growth medium (RPMI 1640 (Amimed Cat #1-41F01-I), 2 mM L-Glutamine (Amimed Cat #5-10K50-H), 10% fetal calf serum (Amimed Cat #2-01F30-I Lot K08815P), 1% MEM Non-essential amino acids (Amimed Cat #5-13K00-H), 1× Penicillin/Streptomycin (Amimed Cat #4-01F00-H)) containing 1 μg/ml blasticidin (Gibco Cat #A11139-03).
(§2) Stock solutions of compounds were prepared at a concentration of 10 mM in DMSO and stored at 4° C. Where necessary to afford a full dose-response curve, the stock solutions were pre-diluted in DMSO to 1′000-fold the desired reduced start concentration. On the day after cell seeding, eleven 2-fold serial dilutions of each compound were dispensed directly into the cell assay plates using a HP 300D non-contact Digital Dispenser (TECAN). The final concentration of DMSO was normalized to 0.1% in all wells.
The ability of compounds to inhibit YAP-dependent transcription was assessed in NCI-H2052 Tet-On shYAP_2371 pLenti6 MCAT_Luc and SF268-MCAT_Luc, dox-i-shYAPLevy (Clone 13) cells, while specificity (lack of unspecific inhibition of luciferase expression or activity) was assessed in MKN-45/Ubc-luc cells. The individual cell lines were seeded at 2′500 cells/20 μl/well into white-wall, clear-bottom 384-well plates (Greiner, Cat #781098) and incubated over night at 37° C. prior to addition of serial compound dilutions as described above. Following incubation for 24 hrs at 37° C., compound-mediated modulation of reporter-gene activity was quantified 5 min after addition 20 μL […] BrightGlo (Promega Cat #E2620), by measuring luminescence intensity on a multi-mode plate-reader (TECAN) with an integration time of 100 ms.
(§3) For data analysis, the assay background value determined in wells containing medium, but no cells, was subtracted from all data points.

[5] = tested on: NCI-H2052 Tet-On shYAP_2371 pLenti6 MCAT_Luc cells; assay: Proliferation assay (resazurin/AlamarBlue), NCI-H2052; type: cell-based; details: Homo sapiens; NCI-H2052, 72 hours
Source text: as §1, §2
(§4) After incubation for 72 hours at 37° C., compound-mediated modulation of cell viability was quantified as follows. […] To enable differentiation of cytotoxic from cytostatic compound effects, the number of viable cells on the day of compound addition (day 0) was assessed in a separate cell plate and used to assess the extent of cell viability suppression as described in the following section.
as §3
(§5) The extent of growth inhibition and potential cell kill was assessed by comparing the resorufin levels in compound-treated cells with those present at the time of compound addition. To this end, the following conditional concept was programmatically applied in HELIOS to calculate % growth (% G) for each compound-treated well: % G=(T−V0)/V0))*100 when T<V0, and % G=(T−V0)/(V−V0)))*100 when T≥V0, where V0 is the viability level at time of compound addition, while V and T represent vehicle-control and compound-treated viability levels, respectively, at the end of the compound incubation. 100%, 0% and −100% signify absence of growth inhibition, growth stasis, and complete cell kill, respectively. Compound concentrations leading to half-maximal growth inhibition (GI50) and residual cell viability at the highest tested compound concentration (Data(cmax), expressed in percent) were routinely calculated.

[6] = tested on: SF268-MCAT_Luc_dox-i-shYAPLevy (Clone 13) cells; assay: Proliferation assay (resazurin/AlamarBlue), SF268; type: cell-based; details: Homo sapiens, SF-268; SF268, 72 hours
Source text: as §1, §2, §4, §3, §5

MKN-45/Ubc-luc cells = assay: Proliferation assay (resazurin/AlamarBlue), MKN-45; type: cell-based; details: Homo sapiens; MKN-45, 72 hours
Source text: as §1
As a specificity control, MKN-45 cells were stably transduced with a Ubc-Luc reporter construct, in which constitutive expression of firefly luciferase is driven by the promoter of the ubiquitin C housekeeping gene.
as §2, §4, §3, §5

Avi-humanTEAD4^217-434 / Cy5 labeled humanYAP^60-100, sequence (Q15561 217-434): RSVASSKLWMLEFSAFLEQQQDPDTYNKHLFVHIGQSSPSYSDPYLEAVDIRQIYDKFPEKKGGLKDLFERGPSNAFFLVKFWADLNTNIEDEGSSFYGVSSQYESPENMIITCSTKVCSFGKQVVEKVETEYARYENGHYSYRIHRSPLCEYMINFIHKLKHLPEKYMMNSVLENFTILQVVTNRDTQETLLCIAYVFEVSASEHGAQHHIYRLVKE

Row | SMILES | IC50 [1] | IC50 [2] | IC50 [3] | IC50 [4] | GI50 [5] | GI50 (MKN-45/Ubc-luc cells) | GI50 [6]
1 | COc1ccc(OCC(=O)N2CCC(CC3CCN(C(=O)[C@H]4CC[C@H](NC[C@]5(c6ccccc6)Oc6cc(F)c(Cl)c(-c7c(C(N)=O)ccc(OC)c7F)c6[C@@H]5C)CC4)CC3)CC2)cc1N1CCC(=O)NC1=O (atropisomer, axis not shown) [Example 30, 2-((2S,3S,4S)-5-chloro-2-((((1r,4S)-4-(4-((1-(2-(3-(2,4-dioxotetrahydropyrimidin-1(2H)-yl)-4-methoxyphenoxy)acetyl)piperidin-4-yl)methyl)piperidine-1-carbonyl)cyclohexyl)amino)methyl)-6-fluoro-3-methyl-2-phenyl-2,3-dihydrobenzofuran-4-yl)-3-fluoro-4-methoxybenzamide] | 2.6 nM | 6.9 nM | 1.1 nM | > 2000 nM | 27 nM | > 200 nM | 35 nM
2 | CNC(=O)c1cnc(OCCOCCOCCn2cc(-c3ccc4c(c3)CN(C3CCC(=O)NC3=O)C4=O)nn2)c(F)c1-c1c(Cl)c(F)cc2c1C[C@](c1ccccc1)([C@@H]1CCCN1)O2 (stereo partly drawn) [Example 33, 4-((2S,4S)-5-chloro-6-fluoro-2-phenyl-2-((S)-pyrrolidin-2-yl)-2,3-dihydrobenzofuran-4-yl)-6-(2-(2-(2-(4-(2-(2,6-dioxopiperidin-3-yl)-1-oxoisoindolin-5-yl)-1H-1,2,3-triazol-1-yl)ethoxy)ethoxy)ethoxy)-5-fluoro-N-methylnicotinamide] | 94 nM | 3140 nM | 1340 nM | > 20000 nM | 4400 nM | > 20000 nM | > 20000 nM
3 | COc1ccc(C(N)=O)c(-c2c(Cl)c(F)cc3c2[C@H](C)[C@@](CN[C@H]2CC[C@H](C(=O)N4CCC(CC5CCN(C(=O)COc6ccc(F)c(N7CCC(=O)NC7=O)c6)CC5)CC4)CC2)(c2ccccc2)O3)c1F (atropisomer, axis not shown) [Example 29, 2-((2S,3S,4S)-5-chloro-2-((((1r,4S)-4-(4-((1-(2-(3-(2,4-dioxotetrahydropyrimidin-1(2H)-yl)-4-fluorophenoxy)acetyl)piperidin-4-yl)methyl)piperidine-1-carbonyl)cyclohexyl)amino)methyl)-6-fluoro-3-methyl-2-phenyl-2,3-dihydrobenzofuran-4-yl)-3-fluoro-4-methoxybenzamide] | 3.3 nM | 3.8 nM | 0.64 nM | > 2000 nM | 13 nM | > 200 nM | 17 nM
4 | COc1ccc(C(N)=O)c(-c2c(Cl)c(F)cc3c2[C@H](C)[C@@](CN[C@H]2CC[C@H](C(=O)O)CC2)(c2ccccc2)O3)c1F (atropisomer, axis not shown) [C-I, (1S,4r)-4-((((2S,3S,4S)-4-(6-carbamoyl-2-fluoro-3-methoxyphenyl)-5-chloro-6-fluoro-3-methyl-2-phenyl-2,3-dihydrobenzofuran-2-yl)methyl)amino)cyclohexane-1-carboxylic acid] | 2.2 nM | 130 nM | 180 nM | > 2000 nM | 170 nM | > 2000 nM | > 2000 nM

Second part, led by results:

Row | IC50 [1] | IC50 [2] | IC50 [3] | IC50 [4] | GI50 [5] | GI50 (MKN-45/Ubc-luc cells) | SMILES | GI50 [6]
5 | 19 nM | 4.2 nM | 0.45 nM | > 2000 nM | 31 nM | > 200 nM | COc1ccc(C(N)=O)c(-c2c(Cl)c(F)cc3c2[C@H](C)[C@@](CN[C@H]2CC[C@H](C(=O)N4CCC(CC5CCN(C(=O)COc6cc(-c7scnc7C)ccc6CNC(=O)[C@@H]6C[C@@H](O)CN6C(=O)[C@@H](NC(=O)C6(F)CC6)C(C)(C)C)CC5)CC4)CC2)(c2ccccc2)O3)c1F (atropisomer, axis not shown) [Example 42, (2S,4R)-N-(2-(2-(4-((1-((1S,4r)-4-((((2S,3S,4S)-4-(6-carbamoyl-2-fluoro-3-methoxyphenyl)-5-chloro-6-fluoro-3-methyl-2-phenyl-2,3-dihydrobenzofuran-2-yl)methyl)amino)cyclohexane-1-carbonyl)piperidin-4-yl)methyl)piperidin-1-yl)-2-oxoethoxy)-4-(4-methylthiazol-5-yl)benzyl)-1-((S)-2-(1-fluorocyclopropane-1-carboxamido)-3,3-dimethylbutanoyl)-4-hydroxypyrrolidine-2-carboxamide] | 31 nM
6 | 8.7 nM | 17 nM | 2.3 nM | > 2000 nM | 73 nM | > 200 nM | COc1ccc(C(N)=O)c(-c2c(Cl)c(F)cc3c2[C@H](C)[C@@](CN[C@H]2CC[C@H](C(=O)N4CCC(C5CCN(C(=O)COc6cc(-c7scnc7C)ccc6CNC(=O)[C@@H]6C[C@@H](O)CN6C(=O)[C@@H](NC(=O)C6(F)CC6)C(C)(C)C)CC5)CC4)CC2)(c2ccccc2)O3)c1F (atropisomer, axis not shown) [Example 43, (2S,4R)-N-(2-(2-(1′-((1S,4r)-4-((((2S,3S,4S)-4-(6-carbamoyl-2-fluoro-3-methoxyphenyl)-5-chloro-6-fluoro-3-methyl-2-phenyl-2,3-dihydrobenzofuran-2-yl)methyl)amino)cyclohexane-1-carbonyl)-[4,4′-bipiperidin]-1-yl)-2-oxoethoxy)-4-(4-methylthiazol-5-yl)benzyl)-1-((S)-2-(1-fluorocyclopropane-1-carboxamido)-3,3-dimethylbutanoyl)-4-hydroxypyrrolidine-2-carboxamide] | 68 nM
7 | 7.2 nM | 32 nM | 23 nM | 44 nM | 35 nM | 33 nM | COc1ccc(C(N)=O)c(-c2c(Cl)c(F)cc3c2[C@H](C)[C@@](CNCCCCCc2cccc4c2CN(C2CCC(=O)NC2=O)C4=O)(c2ccccc2)O3)c1F (stereo partly drawn) [Example 35, 2-((2S,3S,4S)-5-chloro-2-(((5-(2-(2,6-dioxopiperidin-3-yl)-1-oxoisoindolin-4-yl)pentyl)amino)methyl)-6-fluoro-3-methyl-2-phenyl-2,3-dihydrobenzofuran-4-yl)-3-fluoro-4-methoxybenzamide] | < 20 nM
